# Experimental data published in PMC11054271, “ABCG2 Transports the Flukicide Nitroxynil and Affects Its Biodistribution and Secretion into Milk” (Pharmaceutics, 2024).
# Like-named read-outs stand apart in the source and are kept apart here.
# Experiments:
# Type in all cases: in vivo
# [1] = target: T1, murine Abcg2 (Mus musculus, UniProt Q7TMS5); assay: Milk secretion experiment in lactating wild-type and Abcg2−/− female mice; parameters: from tissue; host or cells: whole animal: wild-type vs Abcg2-/- mice, >99% FVB/N background; details: lactating female mice, 30 min after 10 mg/kg i.v.
# T1 sequence (Q7TMS5 1-657): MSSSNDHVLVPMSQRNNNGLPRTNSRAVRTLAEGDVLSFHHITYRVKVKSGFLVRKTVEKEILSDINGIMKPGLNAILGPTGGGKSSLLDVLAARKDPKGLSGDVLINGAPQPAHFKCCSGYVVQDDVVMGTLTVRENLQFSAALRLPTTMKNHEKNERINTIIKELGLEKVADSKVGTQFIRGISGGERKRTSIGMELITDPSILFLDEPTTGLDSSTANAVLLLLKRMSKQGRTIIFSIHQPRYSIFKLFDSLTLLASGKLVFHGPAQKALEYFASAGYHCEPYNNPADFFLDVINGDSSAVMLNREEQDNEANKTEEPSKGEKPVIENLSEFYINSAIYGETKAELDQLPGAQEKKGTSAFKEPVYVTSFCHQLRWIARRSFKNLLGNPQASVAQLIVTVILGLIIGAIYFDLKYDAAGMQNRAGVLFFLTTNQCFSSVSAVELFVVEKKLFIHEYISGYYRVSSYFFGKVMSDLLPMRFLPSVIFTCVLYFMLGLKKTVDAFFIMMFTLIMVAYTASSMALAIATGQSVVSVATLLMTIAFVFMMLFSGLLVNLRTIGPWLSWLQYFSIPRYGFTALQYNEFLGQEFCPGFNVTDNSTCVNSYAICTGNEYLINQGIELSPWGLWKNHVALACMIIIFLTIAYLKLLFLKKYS
# Experimental: (§1) All in vivo experiments were carried out using wild-type and Abcg2^−/− mice aged between 8 and 17 weeks, all of >99% FVB/N genetic background, generated and gently supplied by A. H. Schinkel (Netherlands Cancer Institute). Mice were housed and handled complying with institutional and ARRIVE guidelines and European legislation (EU Directive 2010/63/EU for animal experiments). Additionally, experimental procedures were approved by the Animal Care and Use Committee of the University of León and the Junta de Castilla y León (ULE_011_2019).
# Pups of approximately 10 days old were separated from their mothers (wild-type (n = 10) and Abcg2^−/− (n = 11) female mice) 3 h before beginning the experiment. Milk secretion experiments were performed as previously described. Nitroxynil solution was prepared by diluting Distomicide® (250 mg/mL) commercial solution in saline and administered at a dose of 150 μL/30 g bw into the tail vein under anesthesia with isoflurane. […]
# (§2) Plasma, milk and tissue samples from each animal were individually processed and analyzed without pooling, while samples from transport assays were not processed. […]
# (§3) Waters 2695 separation module and Waters 2998 UV photodiode array detector set at 270 nm were used for samples analysis. […] Limit of detection (LOD) and quantification (LOQ) were calculated as previously described. […]
# [2] = system: murine Abcg2; assay: as above; details: FVB/N, mouse, intravenous, lactating Abcg2−/− female mice, 30 min after 10 mg/kg i.v.
# Experimental: as §1
# (§4) Pups of approximately 10 days old were separated from their mothers (wild-type (n = 10) and Abcg2^−/− (n = 11) female mice) 3 h before beginning the experiment. Milk secretion experiments were performed as previously described. Nitroxynil solution was prepared by diluting Distomicide® (250 mg/mL) commercial solution in saline and administered at a dose of 150 μL/30 g bw into the tail vein under anesthesia with isoflurane. An amount of 200 μL oxytocin (1 IU/mL) was administrated subcutaneously 10 min before milk collection. Blood and milk samples were collected from retro-orbital sinus and mammary gland, respectively, 30 min after nitroxynil administration.
# (§5) Plasma, milk and tissue samples from each animal were individually processed and analyzed without pooling, while samples from transport assays were not processed. Tissue samples were homogenized in a mixture of 50% water/50% methanol HCl 0.5% (v/v); 1 mL solution per 0.1 g tissue. The entire amount of collected milk (74.7–295.1 mg) and 100 μL plasma and tissue homogenates were processed. To each sample, 10 μL of a nitrofurantoin solution (10 μg/mL for plasma and milk and 2 μg/mL for homogenized tissues) was added as an internal standard and 150 μL acetonitrile was used to precipitate the proteins. The mixture was vortexed horizontally for 15 min and centrifugated at 10,000× g for 5 min at 4 °C. Supernatant was transferred to a new tube and dried at 40 °C under N2 stream. Samples were reconstituted in 100 μL of mobile phase and 50 μL was injected into HPLC. Standards were subjected to the same procedures as samples.
# (§6) Waters 2695 separation module and Waters 2998 UV photodiode array detector set at 270 nm were used for samples analysis. Chromatographic conditions for nitroxynil detection were based on previously described methods, with minor modifications. Chromatographic separation was achieved on a reverse-phase column (Synergy 4 μm Hydro–RP 80 Å, 250 × 4.60 mm; Phenomenex®, Torrance, CA, USA) using an isocratic binary mobile phase consisting of 25 mM potassium phosphate monobasic (KH2PO4), pH 4: acetonitrile (70:30 for culture samples and 80:20 for animal samples) at a flow rate of 1 mL/min. Autosampler and column temperature were 4 °C and 40 °C, respectively. Limit of detection (LOD) and quantification (LOQ) were calculated as previously described. For cell culture samples, LOD and LOQ were 0.003 μg/mL and 0.007 μg/mL, respectively. For in vivo samples, LOD was in the range of 0.01–0.07 μg/mL and LOQ in the range of 0.03–0.15 μg/mL.
# [3] = system: T2, murine Abcg2; assay: as above; details: FVB/N, mouse, intravenous, lactating wild-type female mice, 30 min after 10 mg/kg i.v.
# T2 construct: from tissue; host or cells: whole animal: wild-type vs Abcg2-/- mice, >99% FVB/N background
# Experimental: as §1, §4, §5, §6
# [4] = target: T1, murine Abcg2; assay: Tissue distribution in wild-type and Abcg2−/− male mice; parameters: from tissue; host or cells: whole animal: wild-type vs Abcg2-/- mice, >99% FVB/N background
# Experimental: as §1
# For pharmacokinetic experiments, a single dose of nitroxynil at 10 mg/kg was administered subcutaneously to wild-type and Abcg2^−/− male mice (n = 4–5, for each time point). Distomicide® (250 mg/mL) commercial solution was dissolved in saline (sodium chloride 0.9%) and dosed at 200 μL per 30 g body weight. Blood samples were collected at different time points (0.5, 3, 4.5, 6, 24, 48 and 96 h) and heparinized blood samples were centrifugated for 15 min at 3000× g. Organs were also collected at 24 and 96 h after euthanasia. Linear trapezoidal rule was used to calculate the area under the plasma concentration–time curve (AUC) parameter.
# as §5, §6
# [5] = target: T1, murine Abcg2; assay: Plasma pharmacokinetics in wild-type and Abcg2−/− male mice; parameters: from tissue; host or cells: whole animal: wild-type vs Abcg2-/- mice, >99% FVB/N background; details: 10 mg/kg s.c.
# Experimental: as §1
# For pharmacokinetic experiments, a single dose of nitroxynil at 10 mg/kg was administered subcutaneously to wild-type and Abcg2^−/− male mice (n = 4–5, for each time point). Distomicide® (250 mg/mL) commercial solution was dissolved in saline (sodium chloride 0.9%) and dosed at 200 μL per 30 g body weight. Blood samples were collected at different time points (0.5, 3, 4.5, 6, 24, 48 and 96 h) and heparinized blood samples were centrifugated for 15 min at 3000× g. […]
# as §2, §3
# [6] = milk and plasma, read-out: Milk-to-plasma ratio
# [7] = milk, read-out: Milk concentration
# [8] = plasma, read-out: Plasma concentration
# [9] = wild-type male mice, 96 h, 10 mg/kg s.c.
compound,measurement,setting,value
N#Cc1cc(I)c(O)c([N+](=O)[O-])c1 [nitroxynil],"Milk concentration, fold higher in wild-type compared with Abcg2−/−",[1],1.9 fold
same,"Milk-to-plasma ratio, fold higher in wild-type compared with Abcg2−/−",[1],2.1 fold
same,Kp at 30 min,[2]; [6],0.1 ± 0.03
same,concentration at 30 min,[2]; [7],8100 ± 1000 ng/mL
same,concentration at 30 min,[2]; [8],62800 ± 13900 ng/mL
same,Kp at 30 min,[3]; [6],0.3 ± 0.1
same,concentration at 30 min,[3]; [7],15700 ± 6300 ng/mL
same,concentration at 30 min,[3]; [8],58800 ± 11200 ng/mL
same,"Concentration in kidney, small intestine and testis, fold higher in Abcg2−/− mice","[4]; abstract statement, time not given",~2 fold
same,"Small intestine levels, fold higher in Abcg2−/− compared with wild-type","[4]; male mice, 24 h, 10 mg/kg s.c.",1.4 fold
same,"Spleen accumulation, fold higher in Abcg2−/− compared with wild-type","[4]; male mice, 24 h, 10 mg/kg s.c.",1.7 fold
same,"Testis concentration, fold higher in Abcg2−/− compared with wild-type","[4]; male mice, 24 h, 10 mg/kg s.c.",~1.6 fold
same,"Tissue concentration, liver",[4]; [9],<LOQ
same,"Tissue concentration, small intestine",[4]; [9],<LOQ
same,"Tissue concentration, spleen",[4]; [9],<LOQ
same,"Tissue concentration, testis",[4]; [9],<LOQ
same,AUC,"[5]; FVB/N, mouse, plasma, sc, wild-type male mice, 0.5-96 h",1920 ± 49.1 µg·h/mL
same,"Plasma AUC, fold higher in Abcg2−/− compared with wild-type",[5]; male mice,1.8 fold
